The values that follow come from patent US11441138B2, “Method for selection of high M6P recombinant proteins” (Amicus Therapeutics, Inc., priority 2016, dated 2022).

Read-outs that look alike come from different tables or passages of the source.

Data set [1] in a line: Phase 1/2 study: plasma miglustat pharmacokinetics. The format is in vivo, human. As to conditions: for half-life / Vd/F / AUC(0-inf) / AUC(0-t) / Cmax / Tmax: both sexes, human, plasma, po; for half-life / Vd/F / AUC(0-inf) / AUC(0-t) / Cmax / Tmax / CL/F: plasma miglustat; for half-life / Vd/F / CL/F: arithmetic mean; for Vd/F: read-out: Vz/F; for AUC(0-inf) / AUC(0-t) / Cmax: geometric mean; for Tmax: median. How it is done:
(§1) Mean total GAA protein and miglustat PK results from the first 8 Cohort 1 patients through Visit 9 and the first 2 Cohort 3 patients were assessed.

Data set [2] concerns the target ATB200 (Homo sapiens, UniProt P10253, H199R/R223H/V780I). The experiment in a line: Stabilization of ATB200 by miglustat. As to conditions: neutral pH of plasma.
Data set [3] in a line: Phase 1/2 study: plasma total GAA protein pharmacokinetics. Also noted: species or system human. As to conditions: in vivo.
Data set [4] has as its system Gaa knockout mice. Kind of data set: Glycogen reduction in Gaa knockout mice, two IV bolus administrations. The format is in vivo, mouse. An excerpt: Animals were given two IV bolus administrations (every other week); tissues were harvested two weeks after the last dose and analyzed for acid α-glucosidase activity and glycogen content.
The subject of data set [5] is GAA KO mice. Kind of data set: Muscle function in Gaa-knockout mice, longer-term studies. The format is in vivo, mouse.
Data set [6] relates to normal and Pompe fibroblast cell lines. The experiment in a line: Cellular uptake of rhGAA by fibroblasts (16-hr incubation, 4MU-α-Glucoside hydrolysis). The note with it: for concentration that saturates cellular receptors: normal and Pompe fibroblasts, 16-hr incubation. The format is cell-based. How it is done:
The relative cellular uptake of ATB200 and Lumizyme® rhGAA were compared using normal and Pompe fibroblast cell lines. […] After 16-hr incubation, external rhGAA was inactivated with TRIS base and cells were washed 3-times with PBS prior to harvest. Internalized GAA measured by 4MU-α-Glucoside hydrolysis and was graphed relative to total cellular protein and the results appear in FIGS. 13A-13B.

Data set [7] concerns Gaa knockout mice. Kind of data set: Muscle physiology and morphology in Gaa-knockout mice. As to conditions: rhGAA 20 mg/kg IV every other week; miglustat 10 mg/kg oral 30 mins prior; compared to alglucosidase alfa. The format is in vivo, mouse. How it is done: Control mice were treated with vehicle alone. Soleus, quadriceps and diaphragm tissue is harvested two weeks after the last dose of recombinant human acid α-glucosidase. […] Semi-thin sections of quadriceps muscle embedded in epoxy resin (Epon) were stained with methylene blue and observed by […] (1000×) to determine the extent of the presence of vacuoles. […] Control mice were treated with vehicle alone. Cardiac muscle tissue was harvested two weeks after the last dose of recombinant human acid α-glucosidase and analyzed for glycogen levels, by staining with periodic acid-Schiff reagent (PAS), and for lysosome proliferation, by measuring levels of LAMP1.

Data set [8] concerns Pompe fibroblasts and skeletal muscle myoblasts. The experiment in a line: Internalization by Pompe fibroblasts and skeletal muscle myoblasts. The format is cell-based.
For data set [9], the system named is GAA KO mice. The experiment in a line: Glycogen clearance in GAA KO mice, 4 injections with or without miglustat (FIG. 15). The format is in vivo, mouse. The note with it: rhGAA 20 mg/kg IV every other week, miglustat 10 mg/kg PO 30 min prior where co-administered, 14 days after last dose. An excerpt: Tissues were collected 14 days after last enzyme dose for glycogen measurement.

A short description of data set [10]: Apparent plasma half-life in vivo.
Data set [11] has as its target T1, CIMPR (Homo sapiens, UniProt P11717). Kind of data set: CIMPR plate binding assay. How it is done:
In addition to having a greater percentage of rhGAA that can bind to the CIMPR, it is important to understand the quality of that interaction. […] Briefly, CIMPR-coated plates were used to capture GAA. Varying concentrations of rhGAA were applied to the immobilized receptor and unbound rhGAA was washed off. The amount of remaining rhGAA was determined by GAA activity.

Data set [12] deals with adults with Pompe disease. Kind of data set: Phase 1/2 study: safety. As to conditions: no infusion-associated reactions to date. The format is in vivo, human. Here is the method: as §1
For data set [13], the target named is T1, CIMPR. Kind of data set: CIMPR affinity chromatography of rhGAA (bound vs unbound GAA activity). The format is binding. The note with it: for CIMPR binding compared with ATB200 rhGAA: FIGS. 4A, 4B, 7A, 7B; for rhGAA bound to CIMPR / containing M6P (eluted with M6P) / rhGAA that did not bind to the CIMPR (GAA activity eluted prior to addition of M6P): fraction of total enzyme by GAA activity. How it is done:
To evaluate the ability of the rhGAA in Myozyme® and Lumizyme®, the only currently approved treatments for Pompe disease, these rhGAA preparations were injected onto a CIMPR column (which binds rhGAA having M6P groups) and subsequently eluted with a free […] gradient. Fractions were collected in 96-well plate and GAA activity assayed by 4MU-α-glucose substrate. The relative amounts of bound and unbound rhGAA were determined based on GAA activity and reported as the fraction of total enzyme.
Multiple batches of the rhGAA according to the invention were produced in shake flasks and in perfusion bioreactors using CHO cell line GA-ATB-200 and CIMPR binding was measured.

Data set [14] deals with subjects with Pompe disease. The note with it: cited from earlier work.
[15] abbreviates: 130 mg, Low (about 130 mg oral) MD.
[16] abbreviates: 130 mg, Low (about 130 mg oral) SD.
Where [17] appears, read: 260 mg, High (about 260 mg oral) MD.
The mark [18] stands for this setting: 260 mg, High (about 260 mg oral) SD.

T1 sequence (P11717 41-2491, species assumed): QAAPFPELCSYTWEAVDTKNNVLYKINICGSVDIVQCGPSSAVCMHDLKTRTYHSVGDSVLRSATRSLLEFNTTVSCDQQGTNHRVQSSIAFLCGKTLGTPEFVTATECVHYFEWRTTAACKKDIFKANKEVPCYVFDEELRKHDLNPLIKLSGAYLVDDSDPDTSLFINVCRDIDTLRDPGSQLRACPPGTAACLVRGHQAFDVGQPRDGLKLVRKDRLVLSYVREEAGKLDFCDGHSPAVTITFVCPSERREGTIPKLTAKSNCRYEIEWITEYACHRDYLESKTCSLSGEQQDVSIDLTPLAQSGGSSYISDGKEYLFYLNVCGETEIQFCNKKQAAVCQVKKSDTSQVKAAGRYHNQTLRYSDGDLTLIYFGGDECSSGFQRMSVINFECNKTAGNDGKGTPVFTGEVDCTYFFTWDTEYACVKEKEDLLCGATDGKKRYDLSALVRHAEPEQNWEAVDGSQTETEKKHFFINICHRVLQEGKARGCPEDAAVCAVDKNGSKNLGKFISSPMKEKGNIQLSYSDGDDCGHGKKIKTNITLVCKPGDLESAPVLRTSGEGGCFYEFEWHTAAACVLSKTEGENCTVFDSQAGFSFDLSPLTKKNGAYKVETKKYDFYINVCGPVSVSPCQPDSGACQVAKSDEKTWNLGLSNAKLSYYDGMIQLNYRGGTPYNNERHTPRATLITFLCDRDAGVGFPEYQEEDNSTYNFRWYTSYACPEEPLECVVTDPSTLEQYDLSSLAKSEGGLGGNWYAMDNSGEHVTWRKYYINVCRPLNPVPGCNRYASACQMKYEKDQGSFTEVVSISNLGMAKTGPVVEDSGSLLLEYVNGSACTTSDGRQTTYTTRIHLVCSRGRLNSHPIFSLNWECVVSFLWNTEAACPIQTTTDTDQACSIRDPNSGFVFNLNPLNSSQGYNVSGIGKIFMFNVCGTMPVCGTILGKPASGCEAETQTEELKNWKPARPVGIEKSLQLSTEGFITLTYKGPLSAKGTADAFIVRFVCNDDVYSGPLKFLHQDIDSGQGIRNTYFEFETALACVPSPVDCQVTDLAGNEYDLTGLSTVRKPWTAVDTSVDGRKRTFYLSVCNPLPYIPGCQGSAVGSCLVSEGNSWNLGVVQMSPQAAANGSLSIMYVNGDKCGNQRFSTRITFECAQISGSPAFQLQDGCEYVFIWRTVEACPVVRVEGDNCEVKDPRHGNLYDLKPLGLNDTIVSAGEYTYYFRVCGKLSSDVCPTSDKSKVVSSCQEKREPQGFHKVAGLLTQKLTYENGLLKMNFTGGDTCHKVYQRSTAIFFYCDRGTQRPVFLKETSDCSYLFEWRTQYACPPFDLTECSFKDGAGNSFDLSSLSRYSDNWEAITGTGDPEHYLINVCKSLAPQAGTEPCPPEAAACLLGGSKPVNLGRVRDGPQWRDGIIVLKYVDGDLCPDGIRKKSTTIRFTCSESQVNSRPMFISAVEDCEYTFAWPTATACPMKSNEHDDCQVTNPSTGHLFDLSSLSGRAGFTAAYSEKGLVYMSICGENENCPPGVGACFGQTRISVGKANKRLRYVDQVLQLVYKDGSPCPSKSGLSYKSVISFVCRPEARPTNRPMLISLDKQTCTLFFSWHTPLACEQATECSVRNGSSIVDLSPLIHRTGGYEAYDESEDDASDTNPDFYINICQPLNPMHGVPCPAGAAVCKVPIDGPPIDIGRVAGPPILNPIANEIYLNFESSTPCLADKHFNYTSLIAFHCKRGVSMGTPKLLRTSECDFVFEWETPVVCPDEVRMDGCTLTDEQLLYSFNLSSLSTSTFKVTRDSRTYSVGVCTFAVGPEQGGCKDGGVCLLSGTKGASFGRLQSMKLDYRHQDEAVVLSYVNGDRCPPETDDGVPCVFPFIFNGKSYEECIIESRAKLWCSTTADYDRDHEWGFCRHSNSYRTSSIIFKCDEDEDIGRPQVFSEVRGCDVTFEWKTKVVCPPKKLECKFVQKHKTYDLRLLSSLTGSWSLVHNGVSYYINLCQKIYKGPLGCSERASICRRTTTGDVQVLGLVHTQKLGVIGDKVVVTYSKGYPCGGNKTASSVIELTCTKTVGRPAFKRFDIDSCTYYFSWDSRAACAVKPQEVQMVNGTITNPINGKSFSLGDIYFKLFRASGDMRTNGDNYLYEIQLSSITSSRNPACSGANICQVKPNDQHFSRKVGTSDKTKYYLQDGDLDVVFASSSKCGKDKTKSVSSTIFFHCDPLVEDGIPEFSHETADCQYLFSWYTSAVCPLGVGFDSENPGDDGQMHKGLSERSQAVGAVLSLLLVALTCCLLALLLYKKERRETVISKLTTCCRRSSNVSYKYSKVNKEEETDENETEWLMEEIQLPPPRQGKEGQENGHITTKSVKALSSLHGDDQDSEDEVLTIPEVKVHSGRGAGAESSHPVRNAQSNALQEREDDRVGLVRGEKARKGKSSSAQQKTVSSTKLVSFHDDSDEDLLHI

With `CCCCN1C[C@H](O)[C@@H](O)[C@H](O)[C@H]1CO` [miglustat, (2R,3R,4R,5S)-1-butyl-2-(hydroxymethyl)piperidine-3,4,5-triol], in data set [1] (130 mg and 260 mg oral), the “dose proportionality of plasma miglustat” value is on record as “dose-proportional kinetics”. The half-life (in general, the time in which the quantity being followed falls by half) in [1] (setting [15]) was 5.9 h; in data set [1] (setting [16]), 5.6 h; in data set [1] (setting [17]), 5.3 h; in data set [1] (setting [18]), 5.7 h. Further, the Vd/F in data set [1] (setting [15]) stood at 86.7 L; in data set [1] (setting [16]), 85.8 L; in data set [1] (setting [17]) it was 81 L; in data set [1] (setting [18]), 86.3 L. The area under the curve AUC(0-inf) – broadly, the area under the concentration-time curve extrapolated to infinity – in [1] (setting [15]) turned out to be 13100 ng·h/mL; in data set [1] (setting [16]), 12600 ng·h/mL; in data set [1] (setting [17]), 26000 ng·h/mL; in [1] (setting [18]), 25900 ng·h/mL. For the same compound, the exposure AUC(0-t) (commonly exposure summed from dosing to a finite time, without extrapolation to infinity) in [1] (setting [15]) turned out to be 12300 ng·h/mL; in data set [1] (setting [16]) it was 11800 ng·h/mL; in [1] (setting [17]), 25000 ng·h/mL; in data set [1] (setting [18]), 24000 ng·h/mL. Further, the Cmax (in general, the peak of the concentration-time curve) in data set [1] (setting [15]) was determined as 1520 ng/mL; in [1] (setting [16]), 1490 ng/mL; in data set [1] (setting [17]), 3570 ng/mL; in data set [1] (setting [18]), 3060 ng/mL. The Tmax – broadly, the time from dosing to the highest level – came out at 3 h in data set [1] (setting [15]), 3.5 h in data set [1] (setting [16]), 3 h in [1] (setting [17]) and 3.5 h in [1] (setting [18]). Moreover, the CL/F – broadly, the apparent clearance, not corrected for the fraction that reaches the circulation – in data set [1] (High (about 260 mg oral) MD) came out at 10.3 L/h; in data set [1] (High (about 260 mg oral) SD) it was 10.6 L/h; in [1] (Low (about 130 mg oral) MD) it was 10.2 L/h; in data set [1] (Low (about 130 mg oral) SD) it was 10.6 L/h. Moreover, the “effect on unfolded ATB200 protein / active conformation” value in [2] is on record as “decrease the percentage of unfolded ATB200 protein”.

As for “ATB200: recombinant human acid α-glucosidase with high M6P content, expressed in CHO cells, described in co-pending application PCT/US2015/053252”, the “volume of distribution (in words)” value in data set [3] (human) is reported as “relatively high volume of distribution”. Also, in data set [3] (human, 5 mg/kg), the “AUC0-∞” value was determined as 218 ng·h/mL, the AUC(0-t) turned out to be 215 ng·h/mL, the maximum concentration (Cmax) is reported as 61 ng/mL and the Tmax turned out to be 3.8 h. In data set [3] (human, 5 mg/kg), the Vss (as a rule, the apparent volume that relates the amount in the body to the concentration in plasma or blood) stood at 4.62 L; the αt1/2 is 1.1 h; the βt1/2 is 1.9 h. In addition, in data set [3] (human, 10 mg/kg), the “AUC0-∞” value worked out at 584 ng·h/mL, the area under the curve AUC(0-t) amounted to 578 ng·h/mL, the Tmax came out at 4.0 h and the αt1/2 stood at 1.6 h. The βt1/2 in [3] (human, 10 mg/kg) worked out at 1.6 h. In addition, in [3] (human, 20 mg/kg), the “AUC0-∞” value worked out at 1512 ng·h/mL, the AUC(0-t) came to 1508 ng·h/mL, the Tmax stood at 4.0 h and the αt1/2 is 1.5 h. In addition, the βt1/2 in data set [3] (human, 20 mg/kg) came to 2.1 h. In addition, the CLT in data set [3] (5 mg/kg) stood at 2.1 L/h. This compound came in with a CLT in [3] (10 mg/kg) of 1.59 L/h. In addition, the CLT in [3] (20 mg/kg) was found to be 1.22 L/h. The “depletion of tissue glycogen” value in data set [4] (5, 10 and 20 mg/kg, two IV bolus every other week, tissues two weeks after last dose) was “dose-dependent fashion”. Besides, in data set [4] (10 and 20 mg/kg, compared to Lumizyme® 20 mg/kg), the “reduction of glycogen levels in skeletal muscles” value is “significantly better reduction of glycogen levels”. In data set [5] (6 months of administration, comparison with Lumizyme®), the “intracellular accumulation of dystrophin” value is given as “lowered intracellular accumulation of dystrophin”. The “internalization into normal and Pompe fibroblast cells” value in [6] (compared with Lumizyme® rhGAA) is “internalized to a greater degree than conventional Lumizyme® rhGAA”. Also, the “concentration that saturates cellular receptors” value in data set [6] is recorded as “about 20 nM”. In addition, in data set [7], the “lysosome proliferation (LAMP1) in heart, diaphragm and soleus” value is on record as “reduction in lysosome proliferation”; the “punctate glycogen levels (PAS) in heart and soleus” value is listed as “reduction in punctate glycogen levels”. In data set [8], the Kuptake was in the range of 7 to 14 nM. Also, the “relative reduction of glycogen in quadriceps and triceps skeletal muscle” value in data set [9] is on record as “greater reduction of glycogen than Lumizyme®”. The “apparent plasma half-life (t1/2)” value in data set [10] is around 0.75 h. Besides, the “CIMPR binding compared with Lumizyme®” value in data set [11] (FIG. 12A) is on record as “bound to CIMPR significantly better than Lumizyme®”. Also, in data set [11] (M6P receptor plate binding assays), the Kd – broadly, the equilibrium constant for the complex coming apart – lay in the range of 2 to 4 nM. Also, the “safety and tolerability overall” value in data set [12] was “safe and well tolerated”.

With “Lumizyme®: conventional rhGAA product (alglucosidase alfa) marketed by Genzyme”, in data set [5] (12 biweekly administrations, ERT 20 mg/kg, miglustat 10 mg/kg, from baseline), the “functional muscle strength (grip strength and wire hang tests)” value is “decline”. For the same compound, the “uptake efficiency constant (Kuptake)” value in data set [6] (extrapolated from uptake curves, FIG. 13C) is given as 56 nM. The “concentration that saturates cellular receptors” value in data set [6] is “about 250 nM”. In addition, in data set [13], the “CIMPR binding compared with ATB200 rhGAA” value was “significantly less CIMPR binding”, the “rhGAA bound to CIMPR / containing M6P (eluted with M6P)” value came to 22% and the “rhGAA that did not bind to the CIMPR (GAA activity eluted prior to addition of M6P)” value is 78%.

Take “Myozyme®: conventional rhGAA product (alglucosidase alfa) marketed by Genzyme”: in [13], the “CIMPR binding compared with ATB200 rhGAA” value is on record as “significantly less CIMPR binding”, the “rhGAA bound to CIMPR / containing M6P (eluted with M6P)” value stood at 27% and the “rhGAA that did not bind to the CIMPR (GAA activity eluted prior to addition of M6P)” value came to 73%.

Consider “[199-arginine,223-histidine]prepro-α-glucosidase (human) [alglucosidase alfa]”, for which the “survival in infantile onset Pompe disease” value in [14] (compared to historical controls) is on record as “significantly improve survival”. The “effect on 6-Minute Walk Test (6MWT) and forced vital capacity (FVC) in late onset Pompe disease” value in data set [14] (compared to placebo) was “statistically significant, if modest, effect”. Also, in [10], the “apparent plasma half-life (t1/2)” value is around 1 h.
